The supplement of paper PMC10307832

Legend:
Experiment in all cases: relative viability (nuclei count vs DMSO), 5 days (fraction); higher = more cells survive
[1] = compound: C1CNCCC1C2=CC(=NN2)C3=CC=NC=C3 + Nc1ncn([C@H]2C[C@H](O)[C@@H](CO)O2)c(=O)n1 [Decitabine] (partner 2 µM)
In short: (§1)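 Lung cancer cell lines were seeded in 1536-well plates and dosed by pin tool the next day, with either a single drug or a fixed anchor-drug dose combined with five library-drug doses (not always all listed) spaced in √10 steps. Five days later, one step fixed the cells and stained their nuclei (final 0.05% Triton X-100, 1% formaldehyde, 1 ug/ml Hoechst), and nuclei were counted on 4× images. Relative viability is the nuclei count in treated wells divided by the count in vehicle wells, and each value is the median of duplicate plates.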

[2] = compound: C[C@@H](N)c1ccc(C(=O)Nc2ccnc3[nH]ccc23)cc1 + COc1cc2c(Oc3ccc(NC(=O)C4(C(=O)Nc5ccc(F)cc5)CC4)cc3F)ccnc2cc1OCCCN1CCOCC1 [Foretinib] (partner 0.25 µM)
In short: as §1

[3] = compound: C[C@@H](N)c1ccc(C(=O)Nc2ccnc3[nH]ccc23)cc1 + CC(C)C[C@H](NC(=O)[C@H](Cc1ccccc1)NC(=O)c1cnccn1)B(O)O [Bortezomib] (partner 0.002 µM)
In short: as §1

Cell Line | relative viability ([1]; first compound 0.08 µM) | relative viability ([1]; first compound 2.53 µM) | relative viability ([1]; first compound 8 µM) | relative viability ([2]; first compound 0.04 µM) | relative viability ([2]; first compound 0.1265 µM) | relative viability ([2]; first compound 0.4 µM) | relative viability ([2]; first compound 1.265 µM) | relative viability ([2]; first compound 4 µM) | relative viability ([1]; first compound 0.8 µM) | relative viability ([3]; first compound 0.04 µM) | relative viability ([3]; first compound 0.1265 µM) | relative viability ([3]; first compound 0.4 µM) | relative viability ([3]; first compound 1.265 µM) | relative viability ([3]; first compound 4 µM)
SW 900 | 0.418 | 0.424 | 0.475 | 1.1 | 0.972 | 0.867 | 0.86 | 0.762 |  |  |  |  |  | 
NCI-H1944 | 0.426 | 0.414 | 0.415 | 0.98 | 0.975 | 0.985 | 0.822 | 0.557 | 0.431 |  |  |  |  | 
NCI-H727 | 0.872 | 0.871 | 0.952 | 1.07 | 1.07 | 1.36 | 1.26 | 1.24 | 0.865 | 1.09 | 1.05 | 1.38 | 0.67 | 1.12
NCI-H1650 | 0.216 | 0.399 | 0.509 | 1.14 | 1.03 | 1.41 | 1.18 | 0.862 | 0.49 | 0.227 | 0.199 | 0.221 | 0.205 | 0.203
HCC-827 | 0.294 | 0.297 | 0.336 | 1.1 | 1.13 | 1.09 | 1.11 | 0.945 | 0.302 | 0.97 | 1.03 | 1.1 | 1.05 | 0.972
HCC-366 | 0.266 | 0.373 | 0.366 | 0.987 | 0.926 | 0.936 |  | 1.07 | 0.353 | 1.16 | 1.08 | 1.15 |  | 1.15
HARA | 0.471 | 0.762 | 0.432 |  | 0.939 | 0.943 |  | 0.896 | 0.524 | 1.24 | 1.26 | 1.22 | 1.17 | 1.14
NCI-H322M | 0.67 | 0.736 | 0.872 | 1.29 | 1.19 | 1.29 |  | 1.39 | 0.645 | 1.4 | 1.38 | 1.34 |  | 1.72
LXF-289 | 0.349 | 0.395 | 0.371 | 1.11 | 0.993 | 0.987 | 1.07 | 0.843 | 0.35 | 1.01 | 0.976 | 1.07 | 1.05 | 0.952
PC-3 [JPC-3] | 0.881 | 0.963 | 0.895 | 1.05 | 0.996 | 1.09 | 0.982 | 0.936 | 0.77 | 0.838 | 0.892 | 0.856 | 0.921 | 0.729
CAL-12T |  |  |  | 1.36 | 1.27 | 1.13 | 1.27 | 0.909 |  | 1.09 | 1.07 | 1.2 |  | 1.04
COR-L 105 | 0.568 | 0.687 | 0.772 | 0.755 | 0.939 | 1.03 | 0.865 | 0.761 | 0.729 | 0.826 | 0.732 | 0.791 | 0.469 | 0.649
NCI-H2347 | 0.63 | 0.658 | 0.567 | 1.17 | 0.964 | 1.22 |  | 1.32 | 0.621 | 0.955 | 1.02 | 1.08 |  | 1.09
NCI-H2126 | 0.613 | 0.667 | 0.578 | 1.2 | 1.13 | 1.29 |  | 1.09 | 0.654 | 1.13 | 1.11 | 1.17 | 1.14 | 1.22
NCI-H838 | 0.431 | 0.46 | 0.451 | 0.965 | 0.957 | 0.919 | 0.634 | 0.409 | 0.441 | 0.624 | 0.758 | 0.605 | 0.393 | 0.342
A549 | 0.208 | 0.302 | 0.146 | 1.09 | 0.98 | 1.07 | 0.776 | 0.515 | 0.282 |  |  |  |  | 
NCI-H2342 | 0.634 | 0.685 | 0.819 | 1.09 | 1.22 | 1.01 | 1.21 | 0.933 | 0.709 |  |  |  |  | 
NCI-H1623 |  |  |  | 0.969 | 0.859 | 0.992 | 0.655 | 1.07 |  |  |  |  |  | 
SK-LU-1 | 0.571 | 0.674 | 0.638 | 0.96 | 0.804 | 0.82 | 0.732 | 0.573 | 0.646 | 0.886 | 1.54 | 1.01 | 0.753 | 0.743
NCI-H2085 | 0.526 | 0.578 | 0.531 | 1.03 | 0.989 | 0.918 | 0.901 | 0.79 |  | 0.882 | 1 | 0.979 | 0.996 | 0.842
NCI-H460 | 0.379 | 0.554 | 0.474 | 0.984 | 1.01 | 1 | 0.986 | 1 | 0.608 | 0.996 | 1.15 | 1.11 | 1.17 | 1.09
Calu-6 |  |  |  | 0.981 | 0.973 | 0.878 | 0.807 | 0.742 |  | 0.99 | 1.1 | 0.911 | 0.886 | 0.886
RERF-LC-KJ | 0.692 | 0.766 | 0.668 | 0.899 | 0.811 | 0.9 | 0.899 | 0.909 | 0.689 | 1.19 | 1.21 | 1.2 | 1.24 | 1.12
LCLC-103H | 0.767 | 0.755 | 0.642 | 0.901 | 0.821 | 0.69 | 0.77 | 0.643 | 0.735 | 1.13 | 0.819 | 1.2 | 0.915 | 0.856
HCC-15 | 0.652 | 0.587 | 0.621 | 1.21 | 1.03 | 0.966 |  | 0.975 | 0.793 | 1.11 | 1.02 | 1.05 |  | 0.93
H3255 | 0.532 | 0.674 | 0.587 | 0.855 | 0.939 | 1.14 | 0.731 | 0.892 |  | 0.827 | 0.86 | 0.895 | 0.955 | 0.657
NCI-H1792 | 0.553 | 0.551 | 0.514 |  |  |  |  |  | 0.398 | 0.955 | 0.983 | 1.02 | 1.03 | 0.797
